{"source": "paper PMC6327988", "about": "(Journal of Enzyme Inhibition and Medicinal Chemistry, 2019)", "key": {"[1]": {"biological_target": "BuChE (Homo sapiens, UniProt P06276)", "sequence (P06276 29-602)": "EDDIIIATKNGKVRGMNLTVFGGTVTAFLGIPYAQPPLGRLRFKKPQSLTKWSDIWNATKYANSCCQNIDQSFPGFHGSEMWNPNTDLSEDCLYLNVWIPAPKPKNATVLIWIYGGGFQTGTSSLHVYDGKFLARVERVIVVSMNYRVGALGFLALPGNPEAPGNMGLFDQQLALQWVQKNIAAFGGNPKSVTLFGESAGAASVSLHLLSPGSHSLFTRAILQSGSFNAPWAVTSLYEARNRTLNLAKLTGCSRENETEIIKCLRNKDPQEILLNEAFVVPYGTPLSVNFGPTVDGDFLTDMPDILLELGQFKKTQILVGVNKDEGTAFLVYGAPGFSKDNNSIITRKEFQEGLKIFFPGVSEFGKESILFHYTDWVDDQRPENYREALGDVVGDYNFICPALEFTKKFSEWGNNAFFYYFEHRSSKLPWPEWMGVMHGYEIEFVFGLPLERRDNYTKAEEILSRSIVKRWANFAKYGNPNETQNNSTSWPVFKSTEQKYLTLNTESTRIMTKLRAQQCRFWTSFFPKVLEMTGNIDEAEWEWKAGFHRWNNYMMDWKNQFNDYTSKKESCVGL", "experiment": "BuChE inhibition, Ellman colorimetric method", "type": "biochemical", "conditions": "ratio of BuChE IC50 values"}, "[2]": {"biological_target": "AChE (Homo sapiens, UniProt P22303)", "sequence (P22303 32-614)": "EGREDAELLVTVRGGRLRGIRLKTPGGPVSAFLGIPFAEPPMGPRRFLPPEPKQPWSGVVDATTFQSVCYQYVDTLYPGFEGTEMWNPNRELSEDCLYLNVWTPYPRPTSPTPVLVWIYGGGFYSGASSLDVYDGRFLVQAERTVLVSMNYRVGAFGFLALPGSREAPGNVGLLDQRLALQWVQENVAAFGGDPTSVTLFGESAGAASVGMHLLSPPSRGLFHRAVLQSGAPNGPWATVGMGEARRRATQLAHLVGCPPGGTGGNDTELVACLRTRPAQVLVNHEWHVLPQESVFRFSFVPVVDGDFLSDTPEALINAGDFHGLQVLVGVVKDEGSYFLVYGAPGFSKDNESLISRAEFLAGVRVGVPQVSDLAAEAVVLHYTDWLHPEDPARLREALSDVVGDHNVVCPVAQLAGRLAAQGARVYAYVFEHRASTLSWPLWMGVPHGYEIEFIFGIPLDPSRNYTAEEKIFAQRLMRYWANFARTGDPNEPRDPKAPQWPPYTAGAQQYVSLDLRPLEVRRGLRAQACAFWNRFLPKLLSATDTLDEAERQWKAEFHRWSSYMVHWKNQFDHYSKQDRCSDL", "experiment": "AChE inhibition, Ellman colorimetric method", "type": "biochemical", "conditions": "ratio of AChE IC50 values"}}}
{"smiles": "Cc1ccc(S(=O)(=O)n2cc(Br)c(=O)[nH]c2=O)cc1", "note": "[Compound 4, 5-Bromo-1-(toluene-4-sulfonyl)-1H-pyrimidine-2,4-dione]", "values": [{"measurement": "fold better BuChE inhibitor compared to 5", "setting": "[1]; vs 5", "result": 1.42, "unit": "fold"}, {"measurement": "fold less active compared to neostigmine (BuChE)", "setting": "[1]; vs neostigmine", "result": 1.63, "unit": "fold"}, {"measurement": "fold stronger AChE inhibitory profile compared to uracil 3", "setting": "[2]; vs 3", "result": 1.71, "unit": "fold"}, {"measurement": "fold active compared to neostigmine (AChE)", "setting": "[2]; vs neostigmine", "result": 1.54, "unit": "fold"}]}
{"smiles": "O=c1[nH]cc(Br)c(=O)[nH]1", "note": "[Compound 3, 5-bromo-1H-pyrimidine-2,4-dione]", "values": [{"measurement": "fold weaker BuChE inhibitor compared to uracil derivative 4", "setting": "[1]; vs 4", "result": 2.13, "unit": "fold"}]}
{"smiles": "CS(=O)(=O)n1cc(Br)c(=O)[nH]c1=O", "note": "[Compound 5, 5-Bromo-1-methanesulfonyl-1H-pyrimidine-2,4-dione]", "values": [{"measurement": "fold decrease of AChE inhibitory activity, mesylate vs toluene-4-sulfonyl group", "setting": "[2]; 5 vs 4", "result": 1.26, "unit": "fold"}]}
